Reference: patent US4011390A, “Semi-synthetic aminocyclitol aminoglycoside antibiotics and methods for the preparation thereof” (Schering-Plough Corporation, priority 1974, dated 1977)

What was measured:
Format in all cases: cell-based
Bacillus subtilis = assay: Disc test, Bauer-Kirby technique with 10 Mcg. discs; conditions: strain ATCC 6633
Text: (§1) Disc Test Results (Replicate Tests) With The Mutamicins, Sisomicin and
(§2) Bauer-Kirby Technique^1 With 10 Mcg. Discs
(§3) ^1 Bauer, Kirby, Sherris and Turck, American Journal of Clinical

Escherichia coli = assay: as above; conditions: 10 Mcg. discs
Text: as §1, §2, §3

Klebsiella pneumoniae [1] = assay: as above
Text: as §1, §2, §3

Providence 164 = assay: as above; conditions: strain 164
Text: as §1, §2, §3

Pseudomonas aeruginosa [2] = assay: as above
Text: as §1, §2, §3

Staphylococcus aureus = assay: as above
Text: as §1, §2, §3

Streptococcus pyogenes = assay: as above
Text: as §1, §2, §3

E. coli = assay: Activity against resistant strains; conditions: E. coli W677/R55 and LA290/R55
Text: (§4) In many instances, bacterial resistance is related to the organism's ability to inactivate the antibacterial agent via enzymatic (biochemical) means. Some species inactivate aminoglycosides antibiotics by acetylating the antibacterial agent, others by phosphorylation and still others by adenylylating. Some strains have several different inactivating capabilities. Further, the inactivation reactions occur at a specific site or sites on the antibacterial agent. We have shown by the compounds of this invention that alteration of sites on the antibiotic molecule not directly involved in inactivation processes can nevertheless frustrate these inactivation processes. […] The tables illustrate that the mutamicins include compounds which are active against strains having different mechanisms of inactivation of gentamicin, sisomicin, kanamycin, neomycin and torbramycin. For example, some mutamicins are effective against strains of E. coli which contain adenylylating R factors such as E. coli W677/R55 and LA290/R55. These E. coli strains are resistant to gentamicin, sisomicin and torbramycin. Some are also effective against gentamicin, tobramycin and kanamycin resistant adenylylating strains of Klebsiella pneumoniae and also kanamycin, neomycin phosphorylating strains of E. coli and Klebsiella pneumoniae. Further, some mutamicins are effective against gentamicin and sisomicin resistant strains of Pseudomonas aeruginosa and gentamicin, sisomicin, tobramycin resistant Providence which is sensitive to kanamycin. Thus, the mutamicins afford a means for combatting strains of bacteria which have already developed a variety of mechanisms for resisting the action of many of the antibiotics known in the art or currently in commercial use.

Klebsiella pneumoniae [3] = assay: Activity against resistant strains; conditions: gentamicin, tobramycin and kanamycin resistant adenylylating strains
Text: as §4

Providence = assay: Activity against resistant strains; conditions: gentamicin, sisomicin, tobramycin resistant Providence
Text: as §4

Pseudomonas aeruginosa [4] = assay: Activity against resistant strains; conditions: gentamicin and sisomicin resistant strains
Text: as §4

gentamicin [reference compound]
Zone Size (Bacillus subtilis): 31 mm
Zone Size (Escherichia coli; strain 589): 23 mm
Zone Size (Escherichia coli; strain ATCC 10536): 28 mm
Zone Size (Escherichia coli; strain JR88): 11 mm
Zone Size (Escherichia coli; strain JR90): 0 mm
Zone Size (Escherichia coli; strain LA290/R55): 12 mm
Zone Size (Escherichia coli; strain Swidinsky 4195): 23 mm
Zone Size (Escherichia coli; strain W677/R55): 13 mm
Zone Size (Klebsiella pneumoniae [1]; strain Ad 17): 22 mm
Zone Size (Klebsiella pneumoniae [1]; strain Ad 18): 25 mm
Zone Size (Klebsiella pneumoniae [1]; strain Georgetown 3020): 11 mm
Zone Size (Klebsiella pneumoniae [1]; strain Georgetown 3694): 13 mm
Zone Size (Providence 164): 11 mm
Zone Size (Pseudomonas aeruginosa [2]; strain Capetown 18): 12 mm
Zone Size (Pseudomonas aeruginosa [2]; strain D-2): 23 mm
Zone Size (Pseudomonas aeruginosa [2]; strain St. Michael 413): 26 mm
Zone Size (Pseudomonas aeruginosa [2]; strain St. Michael 762): 24 mm
Zone Size (Pseudomonas aeruginosa [2]; strain St. Michael 1262): 25 mm
Zone Size (Pseudomonas aeruginosa [2]; strain St. Michael 1395): 26 mm
Zone Size (Pseudomonas aeruginosa [2]; strain Stone 20): 27 mm
Zone Size (Pseudomonas aeruginosa [2]; strain Stone 39): 25 mm
Zone Size (Pseudomonas aeruginosa [2]; strain Stone 130): 12 mm
Zone Size (Pseudomonas aeruginosa [2]; strain Stone 138): 10 mm
Zone Size (Staphylococcus aureus; strain 59N): 28 mm
Zone Size (Staphylococcus aureus; strain ATCC 6538P): 25 mm
Zone Size (Staphylococcus aureus; strain Wood): 27 mm
Zone Size (Staphylococcus aureus; strain Ziegler): 26 mm
Zone Size (Streptococcus pyogenes; strain B-Cruz): 16 mm
Zone Size (Streptococcus pyogenes; strain C): 13 mm
activity against strains containing adenylylating R factors (E. coli): resistant
activity against resistant adenylylating strains (Klebsiella pneumoniae [3]): resistant
activity against resistant Providence (Providence): resistant
activity against resistant strains (Pseudomonas aeruginosa [4]): resistant
